Measurements published in ChEMBL document CHEMBL1201862, “PubChem BioAssay data set” (2004).
Calls of active or inactive are those of the source.

Legend:
[1] = target: T1, Carboxy-terminal domain RNA polymerase II polypeptide A small phosphatase 1 (Homo sapiens, UniProt Q9GZU7); assay: CTDSP1 inhibitors, concentration-response, biochemical, absorbance readout, ultra-high-throughput screen actives (AID 540297); assay type: functional
T1 sequence (Q9GZU7 whole entry): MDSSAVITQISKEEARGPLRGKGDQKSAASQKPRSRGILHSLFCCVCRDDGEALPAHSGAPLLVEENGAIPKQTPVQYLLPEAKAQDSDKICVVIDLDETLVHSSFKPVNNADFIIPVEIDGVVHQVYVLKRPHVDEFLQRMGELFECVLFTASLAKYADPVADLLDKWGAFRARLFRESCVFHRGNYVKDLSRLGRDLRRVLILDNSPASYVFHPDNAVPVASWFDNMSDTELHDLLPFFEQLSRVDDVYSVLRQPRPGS

[2] = target: Eukaryotic translation initiation factor 4E (Mus musculus, UniProt P63073); assay: blockers of eIF4G binding by eIF4E – biochemical, TR-FRET, dose response (AID 855); assay type: functional;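 further: potency for disrupting eIF4E binding to eIF4GI seen as loss of FRET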
[3] = viability of HCT116 lacking mutant beta-catenin – cell-based, human colon tumor, dose response (AID 1045); assay type: functional;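 further: HCT116 colon tumor cells with beta catenin knocked out; cells exposed to compound for 60 hours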
[4] = viability of PTEN-deleted HCT116 cells – cell-based, HCT116 PTEN knockout, dose response (AID 1047); assay type: functional;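 further: HCT116 colon tumor cells with PTEN knocked out; cells exposed to compound for 60 hours before readout; potency for loss of cell viability measured by luminescence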
[5] = microbe, parasite or virus in culture; assay type: functional; conditions: Mycobacterium tuberculosis
cells = assay type: functional
[6] = tested on: Streptococcus sp. 'group A'; assay: Streptococcus pyogenes SK(-)GAS viability under kanamycin – luminescence, BacTiterGlo, confirmation, counter-screen for streptokinase expression inhibitor project, dose response (AID 1900); assay type: functional, organism-based; conditions: read-out: EC50
Streptococcus = assay: GAS UMAA2166 growth inhibition – luminescence, BacTiterGlo, counter-screen for streptokinase expression inhibitor project, dose response (AID 1915); assay type: functional, organism-based;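 further: potency for reduction of bacterial viability or growth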
[7] = target: T2, Corticotropin-releasing factor receptor 2/Corticotropin-releasing factor-binding protein (Homo sapiens, UniProt P24387+Q13324); assay: activators of CRF receptor 2 with binding protein – uHTS hits, confirmation (AID 602473); assay type: functional; conditions: read-out: EC50_Mean
T2 sequence (Q13324 whole entry): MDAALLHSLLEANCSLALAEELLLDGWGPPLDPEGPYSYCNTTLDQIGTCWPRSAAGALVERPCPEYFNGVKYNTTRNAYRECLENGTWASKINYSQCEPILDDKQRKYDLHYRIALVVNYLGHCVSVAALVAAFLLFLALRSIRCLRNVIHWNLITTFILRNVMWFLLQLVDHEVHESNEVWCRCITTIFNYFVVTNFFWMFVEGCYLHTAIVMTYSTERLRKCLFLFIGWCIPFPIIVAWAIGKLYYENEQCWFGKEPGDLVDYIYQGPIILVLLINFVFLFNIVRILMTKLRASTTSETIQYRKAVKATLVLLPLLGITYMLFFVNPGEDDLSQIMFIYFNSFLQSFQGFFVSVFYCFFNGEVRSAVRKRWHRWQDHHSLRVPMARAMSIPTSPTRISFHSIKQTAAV
T2 sequence (P24387 whole entry): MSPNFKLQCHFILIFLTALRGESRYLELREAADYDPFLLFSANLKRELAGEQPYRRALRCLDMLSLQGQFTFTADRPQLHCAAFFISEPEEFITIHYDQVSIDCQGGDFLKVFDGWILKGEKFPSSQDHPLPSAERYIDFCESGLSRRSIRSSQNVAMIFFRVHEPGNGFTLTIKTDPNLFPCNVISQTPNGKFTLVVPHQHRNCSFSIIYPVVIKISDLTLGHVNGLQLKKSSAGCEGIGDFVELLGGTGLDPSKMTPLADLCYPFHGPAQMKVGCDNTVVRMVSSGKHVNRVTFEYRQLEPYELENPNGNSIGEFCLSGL

[8] = P. falciparum Dd2 growth inhibitors, dose response, SYBR Green, cherry-picked samples (AID 1159567); assay type: functional, cell-based
Streptokinase A = target: T3, Streptokinase A (Streptococcus pyogenes serotype M1, UniProt P10520); assay: viability-normalized secreted streptokinase activity reduction – plasminogen activation absorbance, OD405, dose response (AID 1914); assay type: functional, Streptococcus pyogenes M1 GAS;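 further: secreted streptokinase activity via plasminogen activation per viability signal from cell pellet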
T3 sequence (P10520 whole entry): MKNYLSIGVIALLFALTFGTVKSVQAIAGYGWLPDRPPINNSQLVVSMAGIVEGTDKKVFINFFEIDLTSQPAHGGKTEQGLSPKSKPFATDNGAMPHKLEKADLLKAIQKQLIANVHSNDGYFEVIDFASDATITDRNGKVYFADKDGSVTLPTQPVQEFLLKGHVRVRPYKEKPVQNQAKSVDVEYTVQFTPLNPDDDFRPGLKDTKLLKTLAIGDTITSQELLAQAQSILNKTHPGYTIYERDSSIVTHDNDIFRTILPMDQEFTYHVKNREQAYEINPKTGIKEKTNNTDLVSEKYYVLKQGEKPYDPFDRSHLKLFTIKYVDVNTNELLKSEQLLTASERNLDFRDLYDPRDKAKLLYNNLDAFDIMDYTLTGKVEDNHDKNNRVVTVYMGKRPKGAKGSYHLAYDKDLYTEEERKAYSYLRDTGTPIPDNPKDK

[9] = luciferase reporter signal suppression in cells – H4 neuroglioma cells, luminescence, dose response (AID 1990); assay type: functional, cell-based
[10] = reduction of Shn3 3'UTR-driven luciferase in osteoblasts – cell-based, Clone20 osteoblasts, firefly luciferase, cherry-picked, dose response (AID 624132); assay type: functional;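 further: firefly luciferase luminescence from reporter carrying the Shn3 3'UTR in osteoblasts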
[11] = alpha-synuclein stem-loop luciferase translation blockers – H4 neuroglioma cells, luminescence, confirmation (AID 1988); assay type: functional, cell-based
[12] = Luminescence Cell-Based Dose Response HTS to Identify Inhibitors of 5'UTR Stem-Loop Driven Prion Protein mRNA Translation in H4 Neuroglioblastoma Cells. [Related pubchem assays: 1827 (Project Summary), 1813 (Primary HTS)]; assay type: functional

Sequence of Eukaryotic translation initiation factor 4E (P63073 whole entry): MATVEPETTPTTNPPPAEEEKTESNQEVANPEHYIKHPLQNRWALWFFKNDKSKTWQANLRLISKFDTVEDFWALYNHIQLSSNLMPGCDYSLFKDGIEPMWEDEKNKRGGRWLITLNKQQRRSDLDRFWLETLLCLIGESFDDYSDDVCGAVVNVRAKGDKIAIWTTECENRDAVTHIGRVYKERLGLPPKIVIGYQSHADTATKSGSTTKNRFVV

Compound: O=C(CCS(=O)(=O)c1ccc(Br)cc1)NCc1ccc(F)cc1
- IC50 [1]: 7.9 µM (active)

Compound: CCOC(=O)c1c(-c2cccc([N+](=O)[O-])c2)csc1NC(=O)CCCOc1ccccc1
- IC50 [2]: > 64 µM (inactive)

Compound: COc1ccc2o/c(=N\c3ccccc3)c(-c3nc4ccccc4[nH]3)cc2c1
- EC50 [3]: 2.59 µM (active)
- EC50 [4]: 2.22 µM (active)

Compound: O=C(Nc1nnc(C2=COCCO2)o1)c1ccc(Cc2ccccc2)cc1
- CC50 [5]: > 40 µM (active)
- IC50 (cells): 10.2 µM (active)
- EC50 [6]: 2.54 µM (active)
- EC50 (Streptococcus): 3.96 µM (active)

Compound: CCCCC(=O)Nc1ccc2oc(-c3ccncc3)nc2c1
- IC50 [2]: > 64 µM (inactive)

Compound: COC(=O)CNC(=O)COC(=O)C(Cc1ccccc1)NC(=O)c1ccco1 (configuration not stated)
- EC50 [7]: > 53 µM (inactive)

Compound: COCC(=O)Nc1ccc2c(c1)C(=O)N(C)C[C@@H](OC)[C@H](C)CN(CC1CCCCC1)[C@@H](C)CO2
- AC50 [8]: 6.65 µM (active)

Compound: CSc1ccc(/C=N/NC(=O)c2ccc(C)c(C)c2)cc1
- IC50 [1]: 9.17 µM (active)

Compound: CCCOC(=O)c1ccc(OCC(O)CN2CCN(C(=O)c3ccccc3)CC2)cc1 (configuration not stated)
- IC50 [2]: > 64 µM (inactive)

Compound: C=CCNc1oc(-c2ccc(-c3ccccc3)cc2)nc1C#N
- CC50 [5]: > 40 µM (active)

Compound: COc1cc(/C=N/NC2=NC(=O)C(CC(=O)O)S2)ccc1OCc1ccc(Cl)cc1 (configuration not stated)
- IC50 [1]: 12.4 µM (active)

Compound: N#C[C@@H]1[C@@H](c2ccc(C#CC3CCCCC3)cc2)[C@H](CO)N1C(=O)Nc1ccc(F)cc1
- AC50 [8]: 5.12 µM (active)

Compound: COc1ccc(C(=O)Nc2ccccc2C(N)=O)cc1
- IC50 [2]: > 64 µM (inactive)

Compound: CC(C)CN1C(=S)SC(C)(C)C1n1oc(=O)n(-c2ccc(Cl)cc2)c1=O (configuration not stated)
- EC50 [3]: 20.7 µM (active)
- EC50 [4]: 21.9 µM (active)
- EC50 [6]: 4.36 µM (active)
- EC50 (Streptococcus): 18.8 µM (active)
- EC50 (Streptokinase A): 5.59 µM (active)

Compound: O=c1c(/C=C(\O)c2ccc(F)cc2)nc2ccccc2n1-c1ccccc1
- EC50 [7]: 7.18 µM (active)

Compound: COc1cc(NC(=O)c2ccccc2)c(OC)cc1NC(=O)Cc1cccs1
- IC50 [1]: 3.86 µM (active)
- IC50 [2]: 50 µM (inactive)

Compound: COc1ccc2c(c1OC)C(=O)N1c3ccccc3C(=O)N(c3ccccc3F)C21 (configuration not stated)
- EC50 [9]: > 120 µM (not active)
- AC50 [10]: 11.6 µM (active)
- EC50 [11]: 12 µM (active)
- EC50 [12]: 13.1 µM (active)

Compound: C[C@@H](O)C1NC(=O)[C@H](CCCCN)NC(=O)c2cc([N+](=O)[O-])cc(I)c2NCCC[C@@H](C(N)=O)NC1=O (some centres not stated)
- IC50 [2]: > 64 µM (inactive)

Compound: O=C(c1ccc([N+](=O)[O-])cc1)c1cc2ccc(O)cc2oc1=O
- IC50 [1]: 10.8 µM (active)

Compound: COc1ccccc1NC(=S)NC(=O)Cc1ccc(Cl)cc1
- EC50 [7]: 9.41 µM (active)
